According to patent US12485117B2, “Compositions and methods for activating signaling through the CB1 cannabinoid receptor for treating and preventing diseases and disorders characterized by abnormal cellular accumulation of sphingolipids such as sphingomyelin” (Wylder Nation Foundation, priority 2018, dated 2025):

What was measured:
[1] = tested on: wt and ASMko mice; experiment: Acute toxicity: sphingomyelin levels by enzymatic assay in brain areas and liver; type: in vivo, mouse; details: 48 hours
Protocol: (§1) We divided wt and ASMko mice of 4.5 months of age in six experimental groups: ASMko control (n=3), ASMko low dose (n=3), ASMko intermediate dose (n=3), ASMko high dose (n=3), wt control (n=3), wt high dose (n=3). PF-04457845, provided as powder, was dissolved in 0.9% NaCl and administered to mice through oral gavage. Vehicle groups received same volume of 0.9% NaCl.
Doses have been calculated taking into account that used in the study conducted in healthy humans (Li et al., Br J Clin Pharmacol 2011, 73:706-716). […] Estimating an average weight of 60 kg for an adult human the daily dose equals to 0.0083 mg/kg. This dose was very similar to that used in our first 8 week-long treatment with PF-04457845 in ASMko mice, which according to the formulas to calculate equivalence between humans and mice (Nair and Jacob J Basic Clin Pharma 2016, 7:27-31) corresponded to a daily HED dose of 0.0072 mg/kg. For this toxicity study we agreed to take into account the human dose: 0.0083 mg/kg. Formula conversion to mouse dose: HED (mg/kg)=Mouse dose (mg/kg)×mouseKm/Human Km).
Sphingomyelin levels were quantified by enzymatic assay in extracts from different brain areas (hippocampus, cerebellum and cortex) and from liver of wt and ASMko mice treated with PF-04457845 at 0.1 mg/kg, 1 mg/kg and 5 mg/kg or with vehicle (FIG. 26). The results confirmed the remarkable increase of sphingomyelin levels in the vehicle-treated ASMko mice with respect to wt at this advanced stage of the disease (168% in hippocampus, 170% in cerebellum, 139% in cortex and 216% in liver with respect to wt values considered 100%).

[2] = tested on: wt and ASMko mice; experiment: Acute toxicity: SM and ceramide levels in blood; type: in vivo, mouse
Protocol: as §1
After these 48 hours and immediately before termination we collected blood from mice and prepared serum by leaving blood samples 30 minutes for clotting at room temperature and by collecting the supernatant after centrifugation at 6000 rpm for 10 minutes. Following termination, mice were transcardially perfused with phosphate-buffered saline (PBS).
SM and ceramide levels were also monitored in the blood of wt and ASMko mice with and without PF-04457845 treatment as a readout of acute toxicity.

[3] = tested on: pediatric ASMD patient; experiment: Single patient preliminary clinical trial: liver enzymes ALT and AST; type: in vivo, human
Description: Based on the compelling safety and efficacy data from the ASMko mouse model, we submitted an expanded access request to the Food and Drug Administration for a single patient preliminary clinical trial to assess the effect of PF-04457845 administration to a single pediatric ASMD patient. The FDA approved the trial, and it is presently ongoing. The patient received their first does of PF-04457845 (which is being administered via NG-tube delivery) nearly one year ago now, and the patient will continue to be monitored for improvement in ASMD-related symptoms and/or markers.
Although clinical trial data is not available to us yet, it is worth noting as per the normal standard of care for this patient, weekly or biweekly monitoring of liver enzymes alanine aminotransferase (ALT) and aspartate transaminase (AST) has been ongoing since before initiation of the trial and these analyses are ongoing. Elevated blood levels of AST and ALT are seen in 50%-75% of ASMD patients (McGovern M, et al., Orphanet J Rare Dis. 2017; 12: 41) and are indicative of liver damage caused by the progression of the disease. […] Moreover, ALT/AST ratios appear stable.

[4] = tested on: wt and ASMko mice; experiment: Survival analysis (life span); type: in vivo, mouse
Protocol: (§2) Treatment started at 7 weeks of age and continued for 8 weeks. PF-04457845 was dissolved in 0.9% NaCl and delivered through oral gavage at a dose of 0.3 mg/kg every three days. We chose this dose based on the studies published by Ahn et al., (J Pharm Exp Ther 2011). Control groups received same volume of 0.9% NaCl without PF-04457845.
Behavioral analyses were performed in the last 2 weeks of treatment while still administering the drug. Then, half of the mice were sacrificed for biochemical and histological analysis and the other half continued receiving the treatment to monitor life span.
Seven mice per condition remained under treatment to monitor life span. While the mean survival of non-treated ASMko mice was 29 weeks, PF-04457845 treatment extended ASMko mice mean life span to 38 weeks (FIG. 19).

[5] = tested on: wt and ASMko mice; experiment: Accelerating Rotarod (motor abilities); type: in vivo, mouse; details: 0.3 mg/kg every three days
Protocol: as §2
Cerebellar dependent motor abilities were monitored in an accelerating Rotarod (FIG. 12) on which the mice were trained for two days at a constant speed: the first day four times at 4 rpm for 1 min and the second day four times at 8 rpm for 1 min. On the third day, the Rotarod was set to progressively accelerate from 4 to 40 rpm for 5 min and the mice were tested four times. During the accelerating trials, the latency to fall from the rod was measured. Non-treated ASMko mice spent less time on the rod in the four trials than wt mice, indicative of impaired motor abilities.

[6] = tested on: astrocytes; experiment: Astrocytes by GFAP immunofluorescence; type: in vivo, mouse; details: 0.3 mg/kg every three days
Protocol: Representative images of astrocytes stained for GFAP (red) in the cerebellum, hippocampus and cortex of wt and ASMko mice treated or not with PF-04457845. […] Graphs show mean±SEM GFAP intensity in arbitrary units (n=7, **p<0.01, *p<0.05).
as §2
Brain inflammation was determined by analysis of glial cells in the cerebellum, hippocampus and cortex. The number and morphology of microglia was analyzed by immunofluorescence staining with the marker iba-1 (FIG. 16). […] PF-04457845 treatment had no effect in microglia of wt mice. The amount of astrocytes was analyzed by immunofluorescence with the marker GFAP (FIG. 17). […] PF-04457845 treatment had no effect in astrocytes of wt mice (FIG. 17).

[7] = ASMko mice, single dose of 5 mg/kg
[8] = wt mice, single dose of 5 mg/kg
[9] = about one year of treatment via NG-tube, preliminary

O=C(Nc1cccnn1)N1CCC(=Cc2cccc(Oc3ccc(C(F)(F)F)cn3)c2)CC1 [PF-04457845]
sphingomyelin levels in hippocampus [1, 7]: high variability
sphingomyelin levels reduced in cerebellum [1, 7]: 21%
sphingomyelin levels reduced in cortex [1, 7]: 8%
sphingomyelin levels reduced in liver [1, 7]: 6%
reduction of sphingomyelin in brain areas and liver ([1]; single dose of 0.1 mg/kg): No statistically significant reduction
reduction of sphingomyelin in brain areas and liver ([1]; single dose of 1 mg/kg): No statistically significant reduction
sphingomyelin levels reduced in cerebellum [1, 8]: 17%
sphingomyelin levels reduced in cortex [1, 8]: 23%
sphingomyelin levels reduced in hippocampus [1, 8]: 13%
sphingomyelin levels reduced in liver [1, 8]: 34%
SM levels in blood ([2]; ASMko mice, single doses 0.1, 1, 5 mg/kg (data not shown)): moderate dose-dependent decrease
ceramide levels in blood ([2]; single dose of 0.1 mg/kg (data not shown)): high variability with a tendency to increase
ceramide levels in blood ([2]; single dose of 1 mg/kg (data not shown)): decreased
ceramide levels in blood ([2]; single dose of 5 mg/kg (data not shown)): decreased
ALT/AST ratios ([3]; about one year of treatment): stable
ALT, current value relative to pre-treatment [3, 9]: approximately half
AST, current value relative to pre-treatment [3, 9]: approximately half
tolerability ([3]; about one year of treatment, preliminary): well tolerated without signs of liver toxicity
lifespan extended ([4]; ASMko mice): 31%
mean life span ([4]; ASMko mice, continued treatment 0.3 mg/kg every three days): 38 weeks
survival ([4]; wildtype mice): did not affect
time on the rod (Rotarod) ([5]; ASMko mice, second, third and fourth trials): significantly improved the time on the rod
time on the rod (Rotarod), treated versus non-treated ([5]; wt mice): No differences
GFAP intensity in cerebellum, hippocampus and cortex ([6]; ASMko mice): reduced GFAP intensity in all areas but the effect was significant only in the cerebellum
astrocytes (GFAP) ([6]; wt mice): no effect
